Entries after “also recorded” stand apart in the source; their conditions may differ.
System: APP/PS1 transgenic mice
Test: Oral treatment of APP/PS1 transgenic AD mouse model
Format: in vivo
Settings: 50 mg/kg oral gavage, 12 weeks, 4 month-old APP/PS1 mice
Protocol: FIG. 8A-D. AM24 (7) (50 mg/kg) oral gavage treatment in 4 month-old APP/PS1 transgenic animals during 12 weeks. Immunochemistry was performed using anti-Aβ 1-16 Clone 82E1 (1/1000, Mouse) in (A) control and (B) AM24-treated mice. Percent area of (C) Cortex (Cx) and (D) Cortex plus Hippocampus (CxHp) was measured. Statistical analysis was performed by T test *p<0.05. Experiment was assessed with APP/PS1-saline (n=4) and APP/PS1-AM24 (n=7) mice. Scale bar represents 500 μm.
FIG. 9A-C. AM24 (7) (50 mg/kg) oral gavage treatment during 12 weeks in 4 month-old APP/PS1 transgenic animals. Immunochemistry was performed using anti-Aβ 1-16 Clone 82E1 (1/1000, Mouse) in (A) control and (B) AM24-treated mice. (C) Percent area Hippocampus (Hp) was measured. Experiment was assessed with APP/PS1-saline (n=4) and APP/PS1-AM24 (n=7) mice. […] Scale bar represents 200 μm.
FIG. 10A-E. AM24 (7) (50 mg/kg) oral gavage treatment during 12 weeks in 4 month-old APP/PS1 transgenic animals. Immunochemistry in (A) control and (B) AM24-treated mice and (C) Western Blot were performed using anti-GFAP (1/250 and 1/2000 respectively, Rabbit). (D) Band Intensity was compared with saline treated APP/PS1 mice. (E) Percent area Hippocampus (Hp) was measured. Experiment was assessed with APP/PS1-saline (n=4) and APP/PS1-AM24 (n=7) mice. […] Scale bar represents 200 μm. […]
FIG. 15A-B. AM24 (7) (50 mg/kg) oral gavage treatment in 4 month-old APP/PS1 transgenic animals during 12 weeks. (A) Western-blot was performed using anti-HNE (1/2000, Rabbit) stress marker. (B) Band Intensity was compared with saline treated APP/PS1 mice. Experiment was assessed with APP/PS1-saline (n=4) and APP/PS1-AM24 (n=7) mice. Statistical analysis was performed by T test ** p<0.01.
FIG. 16A-B. AM24 (50 mg/kg) oral gavage treatment in 4 month-old APP/PS1 transgenic animals during 12 weeks. (A) Mitochondrial complex Western-blot was performed using OXPhOS cocktail antibody (1/2000, Mouse) to measure I, II, III and V Complex, and MTCO CIV for complex IV (1/2000, Mouse). (B) Band Intensity was compared with saline treated APP/PS1 mice. Experiment was assessed with APP/PS1-saline (n=4) and APP/PS1-AM24 (n=7) mice. Statistical analysis was performed by T test **p<0.01.
APP/PS1 (amyloid precursor protein/presenilin-1) transgenic mice are a well known model for Alzheimer's disease. In this study, APP/PS1 mice were treated with 50 mg/kg of AM24 (compound 7) and the effects on cell type/morphology and the levels of several neuroinflammatory and stress markers was observed. […] However, there was no decrease in hippocampal plaques (FIG. 9A-C). Additionally, there was no change in the expression of glial fibrillary acid protein (GFAP), a neuroinflammation marker, in the hippocampus of AM24 treated animals (FIG. 10A-E).

COc1ccc2[nH]cc(CCNC(=O)CC(=O)CCc3ccc(O)cc3)c2c1 [Compound 7, 5-(4-hydroxy-phenyl)-3-oxo-pentanoic acid [2-(5-methoxy-1H-indol-3-yl)-ethyl]-amide] was tested, and the “NADH Dehydrogenase-Complex I (mitochondrial complex Western blot)” value was “powerful increase”, the “cortical and cortex/hippocampal amyloid plaques” value was “significant decrease” and the “expression of 8-Hydroxyguanosine (80HG) in the hippocampus” value was “significant decrease”. The “expression of heme-oxygenase-1 (HO-1)” value was “no change”, the “total number and type of glial cells (hippocampus, IBA-1)” value was “remained constant” and the “expression of 4-hydroxy-2-nonenal (HNE)” value (vs saline) was “significant decrease”. For the same compound, the “expression of GFAP in the hippocampus” value (listed as AM24) was “no change; also recorded: no differences were detected” and the hippocampal amyloid plaques (listed as AM24) was “no decrease; also recorded: no differences were detected”.

Reference: patent US9738605B2, “Hybrid compounds of curcumin and melatonin as neuroprotectants for neurodegenerative disorders” (VIRGINIA COMMONWEALTH UNIVERSITY, priority 2013, dated 2017)
